In paper PMC6412119 (2019):

Test system: c-MYC Pu22-G10>T10 (DNA, G4) TGAGGGTGGTTAGGGTGGGTAA
Experiment: fluorescence light-up
Conditions: 100 mM KCl; 10 mM potassium phosphate pH 7.0; 0.5 μM each; weak response

binding: weak
SMILES: C(=NNc1nc(Nc2ccccc2)nc(Nc2ccccc2)n1)c1c2ccccc2cc2ccccc12
